This is an account of results in patent US4798897A, “Isoquinoline derivatives” (Asahi Kasei Kogyo Kabushiki Kaisha, priority 1987, dated 1989).

For test [1], the system named is mesenteric artery. The test can be described thus: Relaxation of mesenteric artery (KCl-contracted). The settings on record: Oryctolagus cuniculus; rabbit mesenteric artery contracted with 15 to 20 mM KCl; read-out: ED50 (concentration attaining 50% of complete relaxation). The protocol: 1. Relaxation of Mesenteric Artery
A rabbit of Japanese local variety weighing about 3 kg was bled to death. Then, the abdomen of the rabbit was dissected to locate a mesenteric artery. […] Thus, shrinking and relaxation of the artery could be measured as a load on the transducer. To the organ bath, KCl was added so that the KCl concentration became 15 to 20 mM, causing the artery to shrink. Then, the compounds of the present invention were added to the organ bath to observe relaxation of the artery.
The effect of the compounds of the present invention on relaxation of mesenteric artery was examined according to the method as mentioned hereinbefore.

For test [2], the system named is bronchial tubes. The test can be described thus: Inhibition of histamine contraction of bronchial tubes (relaxation of bronchial tubes). The settings on record: Cavia porcellus; guinea pig bronchial tube, 10 μM histamine; Table 16; read-out: ED50 (50% decrease of histamine contraction of bronchial tubes). How it is done:
3. Inhibition of Histamine Contraction of Bronchial Tubes (Relaxation of Bronchial Tubes)
That is, a bronchial tube sample taken from a guinea pig was suspended in the 20-ml bath filled with Krebs-Henseleit nutrient solution and maintained at a temperature of 37° C. To the bath was added histamine so that the histamine concentration became 10 μM, causing the bronchial tube sample to contract. After the contraction became stable, the compounds of the present invention were added cumulatively to the bath to observe relaxation of the bronchial tube sample.
The effect of the compounds of the present invention on relaxation of bronchial tubes was examined according to the method as mentioned hereinbefore.

On to `CNC1CCN(S(=O)(=O)c2cccc3c(Cl)nccc23)CC1` [Compound (94), 1-(1-chloro-5-isoquinolinesulfonyl)-4-methylaminopiperidine], for which the EC50 amounted to 18 µM in test [1] and 22 µM in test [2].

For the compound `CNC1CCN(S(=O)(=O)c2cccc3cnccc23)C1` (stereo not shown) [Compound (76), 1-(5-isoquinolinesulfonyl)-3-methylaminopyrrolidine], the EC50 in test [1] was found to be 13 µM; in test [2], 27 µM.

For `CCCCCCNCCN(CCCCCC)S(=O)(=O)c1cccc2cnccc12` [Compound (29), N-(2-hexylaminoethyl)-N-hexyl-5-isoquinolinesulfonamide], the EC50 in test [1] was determined as 9 µM; in test [2], 10 µM.

`NC1CCN(S(=O)(=O)c2cccc3c(O)nccc23)CC1` [Compound (79), 1-(1-hydroxy-5-isoquinolinesulfonyl)-4-aminopiperidine]: the EC50 in test [1] turned out to be 15 µM; in test [2] it was 13 µM.

For `CCCCCCN(C(CN)CCCC)S(=O)(=O)c1cccc2cnccc12` (stereo not shown) [Compound (19), N-(1-aminomethylpentyl)-N-hexyl-5-isoquinolinesulfonamide], the EC50 is 16 µM in test [1] and 13 µM in test [2].

Turning to `NC1CCN(S(=O)(=O)c2cccc3cnccc23)CC1` [Compound (51), 1-(5-isoquinolinesulfonyl)-4-aminopiperidine], the EC50 in test [1] was 15 µM; in test [2], 8 µM.

On to `CCNC1CCN(S(=O)(=O)c2cccc3cnccc23)CC1` [Compound (53), 1-(5-isoquinolinesulfonyl)-4-ethylaminopiperidine], for which the EC50 amounted to 14 µM in test [1] and 11 µM in test [2].

For `O=S(=O)(c1cccc2c(O)nccc12)N1CCCC(NCc2ccccc2)C1` (stereo not shown) [Compound (86), 1-(1-hydroxy-5-isoquinolinesulfonyl)-3-benzylaminopiperidine], the EC50 in test [1] was 17 µM; in test [2], 11 µM.

For `NCCN(Cc1ccccc1)S(=O)(=O)c1cccc2cnccc12` [Compound (6), N-(2-aminoethyl)-N-benzyl-5-isoquinolinesulfonamide], the EC50 came out at 4 µM in test [1] and 5 µM in test [2].

For `CCCCCCN(CC(C)N1CCCCC1)S(=O)(=O)c1cccc2cnccc12` (stereo not shown) [Compound (48), N-hexyl-N-(2-piperidinopropyl)-5-isoquinolinesulfonamide], the EC50 was found to be 24 µM in test [1] and 20 µM in test [2].

On to `CCNC1CCCN(S(=O)(=O)c2cccc3cnccc23)C1` (stereo not shown) [Compound (65), 1-(5-isoquinolinesulfonyl)-3-ethylaminopiperidine], for which the EC50 in test [1] worked out at 6 µM; in test [2] it was 5 µM.

In the case of `CCCNC1CCCN(S(=O)(=O)c2cccc3cnccc23)C1` (stereo not shown) [Compound (66), 1-(5-isoquinolinesulfonyl)-3-propylaminopiperidine], the EC50 in test [1] was found to be 5 µM; in test [2], 8 µM.

`CC(C)NC1CCN(S(=O)(=O)c2cccc3cnccc23)CC1` [Compound (55), 1-(5-isoquinolinesulfonyl)-4-isopropylaminopiperidine]: the EC50 came to 17 µM in test [1] and 12 µM in test [2].

`O=S(=O)(c1cccc2cnccc12)N1CCC(Nc2ccccc2)CC1` [Compound (58), 1-(5-isoquinolinesulfonyl)-4-phenylaminopiperidine]: the EC50 in test [1] turned out to be 20 µM; in test [2], 25 µM.

Turning to `CCCNCC(C)CCCCN(C)S(=O)(=O)c1cccc2cnccc12` (stereo not shown) [Compound (41), N-methyl-N-(6-propylamino-5-methylhexyl)-5-isoquinolinesulfonamide], the EC50 in test [1] came to 17 µM; in test [2], 22 µM.

With `CCCCCCN(CCN1CCOCC1)S(=O)(=O)c1cccc2cnccc12` [Compound (46), N-hexyl-N-(2-morpholinoethyl)-5-isoquinolinesulfonamide], the EC50 in test [1] came to 23 µM; in test [2], 25 µM.

Take `CC(C)NC1CCCN(S(=O)(=O)c2cccc3cnccc23)C1` (stereo not shown) [Compound (67), 1-(5-isoquinolinesulfonyl)-3-isopropylaminopiperidine]: the EC50 in test [1] was found to be 14 µM; in test [2], 10 µM.

Consider `CCCCCCN(CCCN)S(=O)(=O)c1cccc2cnccc12` [Compound (7), N-(3-aminopropyl)-N-hexyl-5-isoquinolinesulfonamide], for which the EC50 in test [1] worked out at 2 µM; in test [2], 13 µM.

For the compound `CCCCCCC(N)CN(CCCCCC)S(=O)(=O)c1cccc2cnccc12` (stereo not shown) [Compound (13), N-(2-aminooctyl)-N-hexyl-5-isoquinolinesulfonamide], the values for the EC50 in test [1] and in test [2] were 5 µM and 19 µM, respectively.

For `CCCCCCCCN(CCN)S(=O)(=O)c1cccc2cnccc12` [Compound (5), N-(2-aminoethyl)-N-octyl-5-isoquinolinesulfonamide], the EC50 in test [1] was determined as 2 µM; in test [2] it was 6 µM.

For the compound `NC1CCCN(S(=O)(=O)c2cccc3c(Cl)nccc23)C1` (stereo not shown) [Compound (96), 1-(1-chloro-5-isoquinolinesulfonyl)-3-aminopiperidine], the results for the EC50 in test [1] and in test [2] were 15 µM and 12 µM, respectively.

Regarding `CCCCCCNCCCCCCN(CCCCCC)S(=O)(=O)c1cccc2cnccc12` [Compound (35), N-(6-hexylaminohexyl)-N-hexyl-5-isoquinolinesulfonamide], the EC50 in test [1] amounted to 19 µM; in test [2] it was 25 µM.

Take `O=S(=O)(c1cccc2cnccc12)N1CCCC(NCCc2ccccc2)C1` (stereo not shown) [Compound (70), 1-(5-isoquinolinesulfonyl)-3-phenethylaminopiperidine]: the figures for the EC50 in test [1] and in test [2] were 7 µM and 13 µM, respectively.

On to `CCCCCCNC1CCN(S(=O)(=O)c2cccc3cnccc23)CC1` [Compound (57), 1-(5-isoquinolinesulfonyl)-4-hexylaminopiperidine], for which the EC50 was found to be 15 µM in test [1] and 20 µM in test [2].

`CNC1CCN(S(=O)(=O)c2cccc3c(O)nccc23)CC1` [Compound (80), 1-(1-hydroxy-5-isoquinolinesulfonyl)-4-methylaminopiperidine]: the figures for the EC50 in test [1] and in test [2] were 14 µM and 16 µM, respectively.

In the case of `CCCCCN(CCCCCCNCc1ccccc1)S(=O)(=O)c1cccc2cnccc12` [Compound (34), N-(6-benzylaminohexyl)-N-pentyl-5-isoquinolinesulfonamide], the figures for the EC50 in test [1] and in test [2] were 20 µM and 21 µM, respectively.

`CCCCCCNC1CCCN(S(=O)(=O)c2cccc3c(Cl)nccc23)C1` (stereo not shown) [Compound (98), 1-(1-chloro-5-isoquinolinesulfonyl)-3-hexylaminopiperidine]: the EC50 in test [1] and in test [2] was 13 µM in each case.

In the case of `O=S(=O)(c1cccc2cnccc12)N(CCNCc1ccccc1)Cc1ccccc1` [Compound (30), N-(2-benzylaminoethyl)-N-benzyl-5-isoquinolinesulfonamide], the EC50 in test [1] and in test [2] was 12 µM in each case.

For `O=S(=O)(c1cccc2cnccc12)N1CCC(N2CCCCC2)CC1` [Compound (62), 1-(5-isoquinolinesulfonyl)-4-piperidinopiperidine], the EC50 in test [1] worked out at 22 µM; in test [2] it was 23 µM.

As for `CCCCCCN(CCNCCCC)S(=O)(=O)c1cccc2cnccc12` [Compound (27), N-(2-butylaminoethyl)-N-hexyl-5-isoquinolinesulfonamide], the EC50 in test [1] and in test [2] was 13 µM each time.

In the case of `CCCCCCN(CCCCCN)S(=O)(=O)c1cccc2cnccc12` [Compound (9), N-(5-aminopentyl)-N-hexyl-5-isoquinolinesulfonamide], the results for the EC50 in test [1] and in test [2] were 9 µM and 15 µM, respectively.

Regarding `CC(C)N(CCN)S(=O)(=O)c1cccc2cnccc12` [Compound (2), N-(2-aminoethyl)-N-isopropyl-5-isoquinolinesulfonamide], the EC50 stood at 4 µM in test [1] and 5 µM in test [2].

`CCCCCCN(CCCCCC)CCN(Cc1ccccc1)S(=O)(=O)c1cccc2cnccc12` [Compound (44), N-benzyl-N-(2-dihexylamimoethyl)-5-isoquinolinesulfonamide]: the EC50 amounted to 21 µM in test [1] and 29 µM in test [2].

In the case of `CCN(CCCCC(C)CN)S(=O)(=O)c1cccc2cnccc12` (stereo not shown) [Compound (22), N-(5-aminomethylhexyl)-N-ethyl-5-isoquinolinesulfonamide], the EC50 in test [1] was 21 µM; in test [2], 20 µM.

As to `CCCCCCN(CC(C)NCC)S(=O)(=O)c1cccc2cnccc12` (stereo not shown) [Compound (36), N-(2-ethylaminopropyl)-N-hexyl-5-isoquinolinesulfonamide], the EC50 in test [1] was 7 µM; in test [2] it was 30 µM.

Turning to `CCN(CCCCCN1CCCCC1)S(=O)(=O)c1cccc2cnccc12` [Compound (50), N-ethyl-N-(5-piperidinopentyl)-5-isoquinolinesulfonamide], the EC50 in test [1] and in test [2] was 26 µM each time.

Turning to `O=S(=O)(c1cccc2cnccc12)N1CCC(NCCc2ccccc2)CC1` [Compound (61), 1-(5-isoquinolinesulfonyl)-4-phenethylaminopiperidine], the EC50 in test [1] and in test [2] was 15 µM in each case.

Turning to `CCCCNC1CCN(S(=O)(=O)c2cccc3cnccc23)CC1` [Compound (56), 1-(5-isoquinolinesulfonyl)-4-butylaminopiperidine], the EC50 in test [1] came to 14 µM; in test [2], 10 µM.
